From patent publication US11840686B2, “Modulation of prekallikrein (PKK) expression” (Ionis Pharmaceuticals, Inc., priority 2013, dated 2023)
Strand notation (5' to 3'): a small letter for the sugar, then the base; units joined by * are phosphorothioate-linked, units joined directly phosphodiester-linked; [ ] holds rarer units or linkages, { } end groups; capitals alone tell only the bases. e = 2'-O-(2-methoxyethyl) (MOE); [5mC] = 5-methylcytosine; d = 2'-deoxy (DNA)

The substances below were run on human PKK mRNA (assay: Antisense inhibition of human PKK mRNA in HepaRG cells, 5,000 nM (Example 2)). Conditions: HepaRG cells, 5,000 nM antisense oligonucleotide; 5-10-5 gapmers; Table 16.
Assay type: cell-based
In short: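 Percent inhibition of PKK mRNA is relative to untreated control, with qRT-PCR (probe set RTS3454) values adjusted to total RNA by RIBOGREEN. Oligonucleotides, fully phosphorothioate 2′-MOE gapmers, were delivered at 5,000 nM by electroporation into 20,000 HepaRG cells/well for about 24 h.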

Substance | % inhibition [%]
546912 (eA*e[5mC]*eA*eT*e[5mC]*dA*d[5mC]*dT*dG*dT*d[5mC]*d[5mC]*dT*dA*dT*eA*eA*e[5mC]*eT*eA; antisense) [compound 546912] | 26
546913 (eG*eT*eA*e[5mC]*e[5mC]*dT*dA*dT*dA*dT*d[5mC]*dA*d[5mC]*dT*dG*eT*eA*eA*e[5mC]*eT; antisense) [compound 546913] | 38
546914 (eA*eT*eA*eT*e[5mC]*dA*d[5mC]*dT*dG*dT*dA*d[5mC]*d[5mC]*dT*dA*eT*eA*eT*e[5mC]*eA; antisense) [compound 546914] | 52
546915 (eT*e[5mC]*eA*e[5mC]*eT*dG*dT*d[5mC]*d[5mC]*dT*dA*dT*dA*dA*d[5mC]*eT*eA*eT*eA*eT; antisense) [compound 546915] | 39
546917 (eA*eT*e[5mC]*eA*e[5mC]*dT*dG*dT*d[5mC]*d[5mC]*dT*dA*dT*dA*dA*e[5mC]*eT*eA*eT*eT; antisense) [compound 546917] | 63
546918 (eA*eA*e[5mC]*eA*eT*d[5mC]*dA*d[5mC]*dT*dG*dT*dA*d[5mC]*d[5mC]*dT*eA*eT*eA*eA*e[5mC]; antisense) [compound 546918] | 14
546926 (eG*e[5mC]*e[5mC]*eA*eT*d[5mC]*d[5mC]*dA*dG*dG*dG*dT*dG*d[5mC]*dT*e[5mC]*eT*e[5mC]*e[5mC]*e[5mC]; antisense) [compound 546926] | 81
546931 (eG*e[5mC]*e[5mC]*e[5mC]*e[5mC]*d[5mC]*dG*dG*dA*dG*d[5mC]*dA*d[5mC]*d[5mC]*dT*eT*e[5mC]*eA*e[5mC]*eT; antisense) [compound 546931] | 58
546935 (e[5mC]*eG*eT*eG*eG*dT*dT*dA*dG*d[5mC]*d[5mC]*dT*dG*dA*d[5mC]*eA*eT*e[5mC]*eT*e[5mC]; antisense) [compound 546935] | 86
546942 (eT*eA*e[5mC]*eA*e[5mC]*dT*dG*dA*dA*d[5mC]*d[5mC]*d[5mC]*d[5mC]*d[5mC]*dT*eT*eA*eG*eG*e[5mC]; antisense) [compound 546942] | 56
546943 (e[5mC]*eA*eG*eT*eT*dT*dG*dG*d[5mC]*d[5mC]*dT*dT*dT*d[5mC]*d[5mC]*eA*eT*e[5mC]*eT*e[5mC]; antisense) [compound 546943] | 54
546944 (eG*e[5mC]*e[5mC]*eA*e[5mC]*dT*dA*dA*d[5mC]*d[5mC]*d[5mC]*dA*d[5mC]*d[5mC]*dT*e[5mC]*eT*eT*eA*eA; antisense) [compound 546944] | 42
546946 (eA*e[5mC]*eT*e[5mC]*e[5mC]*d[5mC]*dA*dT*d[5mC]*dT*dA*d[5mC]*dT*d[5mC]*d[5mC]*e[5mC]*e[5mC]*e[5mC]*eA*eT; antisense) [compound 546946] | 41
546954 (e[5mC]*eT*eG*e[5mC]*eT*dG*dA*dT*dT*dG*dT*dG*dT*d[5mC]*dT*eG*eG*e[5mC]*eT*e[5mC]; antisense) [compound 546954] | 71
546955 (eA*e[5mC]*eA*eA*eG*dG*d[5mC]*dT*dT*d[5mC]*dG*dA*dG*dG*dA*e[5mC]*eA*eG*e[5mC]*e[5mC]; antisense) [compound 546955] | 49
546964 (eG*e[5mC]*eG*eA*eT*dT*d[5mC]*d[5mC]*dT*dT*dG*d[5mC]*d[5mC]*dT*d[5mC]*eT*eG*e[5mC]*eT*eG; antisense) [compound 546964] | 53
546969 (eA*eT*e[5mC]*e[5mC]*eA*dA*d[5mC]*d[5mC]*dT*d[5mC]*dT*d[5mC]*dT*d[5mC]*d[5mC]*e[5mC]*eT*eA*eT*e[5mC]; antisense) [compound 546969] | 53
546970 (eG*e[5mC]*e[5mC]*e[5mC]*eA*dA*dG*d[5mC]*d[5mC]*dT*dA*d[5mC]*dA*dT*dG*e[5mC]*eA*eT*eA*e[5mC]; antisense) [compound 546970] | 61
546975 (eG*eG*e[5mC]*e[5mC]*eT*dG*dG*dA*dT*dA*d[5mC]*dA*dG*d[5mC]*d[5mC]*eT*eT*eT*e[5mC]*eT; antisense) [compound 546975] | 70
546977 (eG*eT*e[5mC]*e[5mC]*e[5mC]*dG*dA*dA*dG*dA*dG*dT*d[5mC]*dA*dA*eG*eT*e[5mC]*e[5mC]*eA; antisense) [compound 546977] | 76
546979 (eA*e[5mC]*eT*eG*eT*dT*dG*dT*d[5mC]*d[5mC]*dA*dT*dA*dG*d[5mC]*eA*eG*e[5mC]*eA*eT; antisense) [compound 546979] | 71
546983 (eG*eA*eT*eG*eA*d[5mC]*d[5mC]*dT*dG*d[5mC]*dA*dG*dA*dT*dG*e[5mC]*eA*e[5mC]*eA*eG; antisense) [compound 546983] | 74
546990 (eA*eG*eA*eA*e[5mC]*dA*dG*dG*dA*dG*dA*d[5mC]*dA*dA*dT*e[5mC]*e[5mC]*eA*e[5mC]*eT; antisense) [compound 546990] | 49
546994 (eG*eT*eT*e[5mC]*eA*dT*dG*dT*dG*dG*d[5mC]*dA*dA*d[5mC]*d[5mC]*eT*eG*eT*eG*eA; antisense) [compound 546994] | 58

Same assay, conditions: HepaRG cells, 5,000 nM antisense oligonucleotide; 5-10-5 gapmers; Table 17

Substance | % inhibition [%]
546999 (eG*e[5mC]*eA*eG*e[5mC]*dT*d[5mC]*dA*d[5mC]*dA*d[5mC]*d[5mC]*d[5mC]*dA*dA*eA*eA*eA*eG*e[5mC]; antisense) [compound 546999] | 29
547000 (eT*e[5mC]*eT*eG*eT*dT*dA*d[5mC]*d[5mC]*dT*dT*dG*dA*dG*dG*eA*eT*eT*eG*eT; antisense) [compound 547000] | 63
547008 (eT*eT*eG*eG*eT*dG*dG*dT*dG*dG*dG*dA*dT*dT*dG*eG*eT*eG*eG*eT; antisense) [compound 547008] | 81
547010 (eG*eA*eA*eT*eT*dG*dG*dT*dG*dG*dT*dG*dG*dG*dA*eT*eT*eG*eG*eT; antisense) [compound 547010] | 39
547011 (eG*eG*e[5mC]*eA*eG*dG*dA*dT*dT*dG*dG*dT*dG*dG*dT*eG*eG*eA*eA*eT; antisense) [compound 547011] | 22
547013 (eT*eG*eA*eG*eA*dT*dT*dG*dG*dT*dG*dG*dT*dG*dG*eG*eT*eG*eG*e[5mC]; antisense) [compound 547013] | 0
547015 (eG*eG*eT*eG*eG*dT*dG*dG*dG*dA*dT*dT*dG*dG*dT*eG*e[5mC]*eT*eG*eA; antisense) [compound 547015] | 55

Same assay, conditions: human PKK mRNA, HepaRG cells; 5-10-5 motif oligonucleotides targeting SEQ ID NO: 1 and 10

Substance | % inhibition [%]
546893 (e[5mC]*eA*e[5mC]*eT*eG*dT*d[5mC]*d[5mC]*dT*dA*dT*dG*dT*d[5mC]*dA*e[5mC]*eT*eG*eT*eA; antisense) [compound 546893] | 70
546895 (eT*eA*eT*e[5mC]*eA*d[5mC]*dT*dG*dT*d[5mC]*d[5mC]*dT*dA*dT*dG*eT*e[5mC]*eA*e[5mC]*eT; antisense) [compound 546895] | 77
546898 (eA*eA*e[5mC]*eA*eG*dT*dA*dT*d[5mC]*dA*d[5mC]*dT*dG*dT*d[5mC]*e[5mC]*eT*eA*eT*eG; antisense) [compound 546898] | 91
546899 (e[5mC]*eT*eA*e[5mC]*e[5mC]*dT*dA*dT*dA*dA*d[5mC]*dT*d[5mC]*dT*dA*eA*e[5mC]*eA*eG*eT; antisense) [compound 546899] | 27
546901 (eA*e[5mC]*eT*eG*eT*d[5mC]*d[5mC]*dT*dA*dT*dA*dA*d[5mC]*dT*dA*eT*eA*eA*e[5mC]*eA; antisense) [compound 546901] | 56
546902 (e[5mC]*eA*e[5mC]*eT*eG*dT*d[5mC]*d[5mC]*dT*dA*dT*dA*dA*d[5mC]*dT*eA*eT*eA*eA*e[5mC]; antisense) [compound 546902] | 71
546904 (eT*e[5mC]*e[5mC]*eT*eA*dT*dA*dT*d[5mC]*dA*d[5mC]*dT*dG*dT*dA*e[5mC]*e[5mC]*eT*eA*eT; antisense) [compound 546904] | 80
546905 (eT*eA*e[5mC]*e[5mC]*eT*dA*dT*dA*dA*d[5mC]*dA*dG*dT*dA*dT*e[5mC]*eA*e[5mC]*eT*eG; antisense) [compound 546905] | 65
546907 (eA*eT*eA*eA*e[5mC]*dT*dA*dT*dA*dA*d[5mC]*dA*dG*dT*dA*eT*e[5mC]*eA*e[5mC]*e[5mC]; antisense) [compound 546907] | 37
546908 (eT*e[5mC]*eA*e[5mC]*eT*dG*dT*dA*d[5mC]*d[5mC]*dT*dA*dT*dA*dA*e[5mC]*eT*eA*eT*eA; antisense) [compound 546908] | 77
546909 (eA*eA*e[5mC]*eA*eA*dT*dA*dT*d[5mC]*dA*d[5mC]*dT*dG*dT*dA*e[5mC]*e[5mC]*eT*eT*eT; antisense) [compound 546909] | 44
546910 (eT*eA*eA*e[5mC]*eA*dA*dT*dA*dT*d[5mC]*dA*d[5mC]*dT*dG*dT*eA*e[5mC]*e[5mC]*eT*eT; antisense) [compound 546910] | 82
546911 (eG*eT*e[5mC]*e[5mC]*eT*dA*dT*dA*dA*d[5mC]*dT*dA*dT*dA*dA*e[5mC]*eA*eA*eT*eA; antisense) [compound 546911] | 52
